Test results published in patent publication US20040142979A1, “Heteroarylsulfonylmethyl hydroxamic acids and amides and their use as protease inhibitors” (priority 2002, published 2004).

What was measured:
Human recombinant MMP-13 = target: T1, Human recombinant MMP-13 (Homo sapiens, UniProt P45452); assay: In vitro MMP inhibition analysis (fluorogenic peptide substrate), MMP-13; assay type: biochemical; settings: human recombinant enzyme; 4 μM substrate (A); apparent Ki without substrate correction
T1 construct: made in house; host or cells: baculovirus / insect cells
Description: (§1) Several compounds and salts were analyzed in an in vitro assay to determine their ability to inhibit the MMP cleavage of peptide substrates. Inhibition constant (Ki) were calculated from the assayed compound-MMP interactions.
(§2) Human recombinant MMP-1, MMP-2, MMP-9, MMP-13, and MMP-14 were used in this assay. All enzymes were prepared in Assignee's laboratories following usual laboratory procedures. Protocols for the preparation and use of these enzymes are available in the scientific literature. See, e.g., Enzyme Nomenclature (Academic Press, San Diego, Calif., 1992) (and the citations therein). See also, Freije et al., J. Biol. Chem., 269(24), 16766-16773 (1994).
The MMP-13 was obtained as a proenzyme from a full-length cDNA clone using baculovirus, as described by V. A. Luckow, “Insect Cell Expression Technology,” Protein Engineering: Principles and Practice, pp. 183-218 (edited by J. L. Cleland et al., Wiley-Liss, Inc., 1996). The expressed proenzyme was first purified over a heparin agarose column, and then over a chelating zinc chloride column. The proenzyme was then activated by APMA for use in the assay. […] See also, O'Reilly et al, Baculovirus Expression Vectors: A Laboratory Manual (W. H. Freeman and Co., New York, N.Y., 1992). See also, King et al., The Baculovirus Expression System: A Laboratory Guide (Chapman & Hall, London, England, 1992).
(§3) All MMPs were activated using 4-aminophenylmercuric acetate (“APMA”, Sigma Chemical, St. Louis, Mo.) or trypsin. MMP-9 also was activated using human recombinant MMP-3 (purified in Assignee's laboratory following standard cloning and purification techniques).
(§4) The following fluorogenic, methoxycoumarin-containing polypeptide substrate (A) was used in the MMP inhibition assays:
(§5) MCA-ArgProLeuGlyLeuDpaAlaArgGluArgNH2 (A)
(§6) “MCA” is 7-methoxycoumarin-4-yl acetyl. Substrate (A) was prepared Assignee's laboratory. In the absence of MMP inhibitory activity, the substrate is cleaved at the Gly-Leu peptide bond. This cleavage separates the highly fluorogenic peptide from the 2,4-dinitrophenyl quencher, thus resulting in increase of fluorescent intensity.
(§7) The stock solutions of the assayed compounds and salts were prepared in 1% dimethyl sulfoxide (DMSO). These stock solutions were diluted in Buffer A (100 mM Tris-HCl, 100 mM NaCl, 10 mM CaCl2, 0.05% polyoxyethylene 23 lauryl ether, pH 7.5) to obtain solutions with different compound concentrations, i.e., assay solutions with different concentrations of the assayed MMP inhibitory compound. The experiment controls contained the same amount of Buffer A/DMSO as the assayed sample, but contained none of the tested compound or salt.
The assays from which the Ki determinations were made were performed as follows. The assayed compound samples were incubated in separate wells of untreated white polystyrene plates (Nunc Nalgene International, Rochester, N.Y.), and analyzed on a Tecan SpectraFlour Plus plate reader. The excitation wavelength was 330 nm, and the emission wavelength -420 nm. All samples (assayed compounds and controls) were incubated in separate plate wells at room temperature for 1 hr in the presence of 4 μM of MMP substrate (A). In the absence of MMP inhibitory activity, substrate (A) was cleaved at the Gly-Leu bond resulting in an increase of relative fluorescence. Inhibition was observed as a reduced rate of this increase in relative fluorescence. […] This protocol is a modification of method by Knight et al., FEBS Lett., 296(3), 263-266 (1992). Apparent inhibitory constants were determined by non-linear regression of reaction velocity as a function of inhibitor and enzyme concentration using Morrison's equation, as described by Kuzmic, P., et al., Anal. Biochem., 286(1):45-50 (2000). […] Since the substrate concentration was chosen to be at or below the Km, the apparent Ki's from this analysis were reported as Ki's without correction for the influence of substrate.
All Ki values in Table 3 are given in nM units.

Human recombinant MMP-9 = target: T2, Human recombinant MMP-9 (Homo sapiens, UniProt P14780); assay: In vitro MMP inhibition analysis (fluorogenic peptide substrate), MMP-9; assay type: biochemical; settings: human recombinant enzyme; 4 μM substrate (A); apparent Ki without substrate correction
T2 construct: made in house; host or cells: MMP-9-transfected HT1080 cells (spent media)
Description: as §1, §2
The MMP-9 proenzyme was purified by gelatin Sepharose chromatography from spent media of MMP-9-transfected HT1080 cells provided by Dr. Howard Welgus of Washington University (St. Louis, Mo.).
as §3, §4, §5, §6, §7
The assays from which the Ki determinations were made were performed as follows. The assayed compound samples were incubated in separate wells of untreated white polystyrene plates (Nunc Nalgene International, Rochester, N.Y.), and analyzed on a Tecan SpectraFlour Plus plate reader. The excitation wavelength was 330 nm, and the emission wavelength -420 nm. All samples (assayed compounds and controls) were incubated in separate plate wells at room temperature for 1 hr in the presence of 4 μM of MMP substrate (A). In the absence of MMP inhibitory activity, substrate (A) was cleaved at the Gly-Leu bond resulting in an increase of relative fluorescence. Inhibition was observed as a reduced rate of this increase in relative fluorescence. […] This protocol is a modification of method by Knight et al., FEBS Lett., 296(3), 263-266 (1992). Apparent inhibitory constants were determined by non-linear regression of reaction velocity as a function of inhibitor and enzyme concentration using Morrison's equation, as described by Kuzmic, P., et al., Anal. Biochem., 286(1):45-50 (2000). Modifications were made in the non-linear regression method to allow a common control reaction rate and effective enzyme concentration to be shared between all dose-response relationships on a given assay plate. Since the substrate concentration was chosen to be at or below the Km, the apparent Ki's from this analysis were reported as Ki's without correction for the influence of substrate.
The above protocols were used to determine MMP inhibition Ki constants for the compounds in Examples 1, 2, and 4-42 above. All Ki values in Table 3 are given in nM units.

T2 sequence (P14780 107-707 limits assumed): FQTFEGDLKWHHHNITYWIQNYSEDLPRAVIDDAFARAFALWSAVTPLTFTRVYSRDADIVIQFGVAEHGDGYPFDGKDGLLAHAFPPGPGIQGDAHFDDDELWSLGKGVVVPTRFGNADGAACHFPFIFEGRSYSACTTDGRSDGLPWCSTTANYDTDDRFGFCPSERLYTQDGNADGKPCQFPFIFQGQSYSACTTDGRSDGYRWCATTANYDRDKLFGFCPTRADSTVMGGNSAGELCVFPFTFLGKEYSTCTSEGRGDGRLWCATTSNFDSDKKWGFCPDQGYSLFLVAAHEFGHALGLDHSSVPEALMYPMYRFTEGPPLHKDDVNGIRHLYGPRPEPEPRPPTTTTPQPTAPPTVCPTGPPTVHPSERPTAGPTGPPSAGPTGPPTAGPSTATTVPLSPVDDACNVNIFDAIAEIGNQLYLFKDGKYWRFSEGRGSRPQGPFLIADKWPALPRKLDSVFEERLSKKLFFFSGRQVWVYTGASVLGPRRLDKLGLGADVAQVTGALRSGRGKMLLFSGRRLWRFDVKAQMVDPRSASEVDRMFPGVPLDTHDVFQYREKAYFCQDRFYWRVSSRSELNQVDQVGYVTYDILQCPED

Row | Ki (Human recombinant MMP-13) | Ki (Human recombinant MMP-9) | Structure (SMILES)
1 | 0.127 nM | 0.806 nM | CCCCOc1ccc(-c2ccc(S(=O)(=O)C3(C(=O)NO)CCOCC3)s2)cc1 [Example 43]
2 | 0.134 nM | 0.354 nM | O=C(NO)C1(S(=O)(=O)c2ccc(-c3ccc(OC(F)(F)C(F)F)cc3)s2)CCOCC1 [Example 44]
3 | 1.19 nM | 8.96 nM | CCCCCc1ccc(-c2ccc(S(=O)(=O)C3(C(=O)NO)CCOCC3)cn2)cc1 [Example 45]
4 | 0.169 nM | 0.988 nM | O=C(NO)C1(S(=O)(=O)c2ccc(-c3ccc(OCC(F)(F)F)cc3)nc2)CCOCC1 [Example 46]
5 | 0.306 nM | 1.53 nM | O=C(NO)C1(S(=O)(=O)c2ccc(-c3ccc(OC(F)(F)C(F)F)cc3)nc2)CCOCC1 [Example 47]
6 | 0.192 nM | 1.06 nM | O=C(NO)C1(S(=O)(=O)c2ccc(-c3ccc(OC(F)(F)C(F)F)cc3)nc2)CCOCC1 [Example 48]
7 | 0.822 nM | 10.2 nM | O=C(NO)C1(S(=O)(=O)c2ccc(-c3ccc(CCC(F)(F)C(F)(F)F)cn3)s2)CCOCC1 [Example 49]
8 | 10.3 nM | 133 nM | O=C(NO)C1(S(=O)(=O)c2ccc(-c3ccc(C(F)(F)F)cn3)s2)CCOCC1 [Example 50]
9 | 0.275 nM | 0.636 nM | O=C(NO)C1(S(=O)(=O)c2ccc3nc(-c4ccc(OC(F)(F)F)cc4)sc3c2)CCOCC1 [Example 51]
10 | 1.58 nM | 837 nM | CCCCc1ccc(C(=O)C2CCN(c3nc4ccc(S(=O)(=O)C5(C(=O)NO)CCOCC5)cc4s3)CC2)s1 [Example 52]
11 | 0.314 nM | 12.8 nM | CCCc1ccc(-c2nc3ccc(S(=O)(=O)C4(C(=O)NO)CCOCC4)cc3s2)cc1 [Example 53]
12 | 2.73 nM | 99 nM | CC(C)Cc1ncc(-c2nc3ccc(S(=O)(=O)C4(C(=O)NO)CCOCC4)cc3s2)s1 [Example 54]
13 | 177 nM | 3310 nM | O=C(NO)C1(S(=O)(=O)c2ccc3nc(-c4cccc(C(F)(F)F)c4)sc3c2)CCOCC1 [Example 55]
14 | 3.43 nM | 68.5 nM | O=C(NO)C1(S(=O)(=O)c2ccc3nc(N4CCC(Oc5ccc(OC(F)(F)F)cc5)CC4)sc3c2)CCOCC1 [Example 56]
15 | 0.384 nM | 0.964 nM | O=C(NO)C1(S(=O)(=O)c2ccc3nc(-c4ccc(C(F)(F)F)cc4)sc3c2)CCOCC1 [Example 57]
16 | 0.336 nM | 1.06 nM | CCc1ccc(-c2nc3ccc(S(=O)(=O)C4(C(=O)NO)CCOCC4)cc3s2)cc1 [Example 58]
17 | 0.588 nM | 5.09 nM | O=C(NO)C1(S(=O)(=O)c2ccc3nc(-c4ccc(Cl)s4)sc3c2)CCOCC1 [Example 59]
18 | 1.54 nM | 14.1 nM | O=C(NO)C1(S(=O)(=O)c2ccc3nc(-c4ccc(F)c(F)c4)sc3c2)CCOCC1 [Example 60]
19 | 2.94 nM | 21.5 nM | O=C(NO)C1(S(=O)(=O)c2ccc3nc(-c4ccc(F)cc4F)sc3c2)CCOCC1 [Example 61]
20 | 1.36 nM | 40.5 nM | O=C(NO)C1(S(=O)(=O)c2ccc3nc(-c4ccsc4)sc3c2)CCOCC1 [Example 62]

Row | Ki (Human recombinant MMP-13) | Ki (Human recombinant MMP-9) | Structure (SMILES)
21 | 0.309 nM | 0.624 nM | COCCN1CCC(C(=O)NO)(S(=O)(=O)c2ccc3nc(-c4ccc(OC(F)(F)F)cc4)sc3c2)CC1 [Example 63]
22 | 22.1 nM | 799 nM | O=C(NO)C1(S(=O)(=O)c2ccc3nc(-n4cnc(-c5ccccc5)c4)sc3c2)CCOCC1 [Example 64]
23 | 1.05 nM | 7.2 nM | O=C(NO)C1(S(=O)(=O)c2ccc3nc(-c4ccc5c(c4)OCO5)sc3c2)CCOCC1 [Example 65]
24 | 0.082 nM | 3.37 nM | CCOc1ccc(-c2nc3ccc(S(=O)(=O)C4(C(=O)NO)CCOCC4)cc3s2)cc1 [Example 66]
25 | 0.293 nM | 0.471 nM | O=C(NO)C1(S(=O)(=O)c2ccc3nc(-c4ccc(SC(F)(F)F)cc4)sc3c2)CCOCC1 [Example 67]
26 | 0.721 nM | 2.82 nM | O=C(NO)C1(S(=O)(=O)c2ccc(-c3ccc(CCC(F)(F)F)cc3)nc2)CCOCC1 [Example 68]
27 | 0.531 nM | 8.93 nM | O=C(NO)C1(S(=O)(=O)c2ccc(-c3ccc(CCC(F)(F)C(F)(F)F)cc3)nc2)CCOCC1 [Example 69]
28 | 1.8 nM | > 10000 nM | CCCCc1ccc(C(=O)C2CCN(c3ccc(S(=O)(=O)C4(C(=O)NO)CCOCC4)cn3)CC2)s1 [Example 70]
29 | 1.93 nM | > 10000 nM | CC(C)CN(C)C(=O)Cc1ccc(-c2ccc(S(=O)(=O)C3(C(=O)NO)CCOCC3)cn2)cc1 [Example 71]
30 | 1.59 nM | 7770 nM | O=C(Cc1ccc(-c2ccc(S(=O)(=O)C3(C(=O)NO)CCOCC3)cn2)cc1)N1CCCCC1 [Example 72]
31 | 18.8 nM | 2220 nM | CCCCNC(=O)Cc1ccc(-c2ccc(S(=O)(=O)C3(C(=O)NO)CCOCC3)cn2)cc1 [Example 73]
32 | 1.91 nM | 4930 nM | CCCCN(C)C(=O)Cc1ccc(-c2ccc(S(=O)(=O)C3(C(=O)NO)CCOCC3)cn2)cc1 [Example 74]
33 | 140 nM | 0.159 nM | CN(C(=O)Cc1ccc(-c2ccc(S(=O)(=O)C3(C(=O)NO)CCOCC3)cn2)cc1)c1ccc(OC(F)(F)F)cc1 [Example 75]
34 | 5.59 nM | 428 nM | CCCCNC(=O)c1ccc(-c2ccc(S(=O)(=O)C3(C(=O)NO)CCOCC3)cn2)cc1 [Example 76]
35 | 447 nM | 1290 nM | CN(C(=O)c1ccc(-c2ccc(S(=O)(=O)C3(C(=O)NO)CCOCC3)cn2)cc1)c1ccccc1 [Example 78]
36 | 607 nM | > 10000 nM | CCN(CC)C(=O)c1ccc(-c2ccc(S(=O)(=O)C3(C(=O)NO)CCOCC3)cn2)cc1 [Example 79]
37 | 264 nM | 3400 nM | CN(C(=O)c1ccc(-c2ccc(S(=O)(=O)C3(C(=O)NO)CCOCC3)cn2)cc1)c1ccc(OC(F)(F)F)cc1 [Example 81]
38 | 229 nM | 894 nM | CC(C)CN(C)C(=O)c1ccc(-c2ccc(S(=O)(=O)C3(C(=O)NO)CCOCC3)cn2)cc1 [Example 82]
39 | 577 nM | 2040 nM | O=C(NO)C1(S(=O)(=O)c2ccc3c(c2)sc2nc(-c4ccccc4)cn23)CCOCC1 [Example 83]
